The target of test [1] is human GABAA α5β2γ1 receptor (Homo sapiens (Human), UniProt P31644+Q8N1C3). In words: Radioligand binding assay for γ1-containing GABAA subtypes, [3H]RO7239181 competition (α5β2γ1).
For test [2], the target named is human GABAA α2β2γ1 receptor (Homo sapiens (Human), UniProt P47869+Q8N1C3). In words: Radioligand binding assay for γ1-containing GABAA subtypes, [3H]RO7239181 competition (α2β2γ1).
The target in test [3] is human GABAA α1β3γ2 receptor (Homo sapiens (Human), UniProt P14867+P18507). In words: Radioligand binding assay for γ2-containing GABAA subtypes, [3H]Flumazenil competition (α1β3γ2). To be noted: for γ2/γ1 Selectivity Ratio: Ki α1β3γ2 (nM)/Ki α2β2γ1 (nM); for LogSel: Log[Ki α1β3γ2 (nM)/Ki α2β2γ1 (nM)].
The target of test [4] is α2β2γ1 GABAA receptor subtype (Homo sapiens (Human), UniProt P47869+Q8N1C3). Put plainly: Two-electrode voltage clamp electrophysiology in Xenopus oocytes expressing GABAA receptors (modulation of GABA EC20 current). It counts as cell-based. To be noted: for Efficacy (GABA)%: % modulation of GABA EC20 = 100*(Fold increase-1), α2β2γ1 oocytes, compound at approx. 30-fold Ki; for Fold increase h-GABA-A α2β2γ1 oocyte @ 30-fold Ki: Xenopus oocytes expressing α2β2γ1, compound at approx. 30-fold its Ki α2β2γ1, GABA EC20 current. The gist of the method: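 Two-electrode voltage clamp at −80 mV, room temperature, 3-5 days after mRNA injection into oocytes. GABA applied at EC20 for 1.5 min, twice, with compound during second application; at least 3 oocytes per concentration. Efficacy = extremum of point-by-point current ratio, expressed as 100×(fold increase−1).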
(Two-electrode voltage clamp is typically applied to oocytes expressing channels or transporters.)

Where [5] appears, read: Ki h-GABAA α2β2γ1, [3H]RO7239181 competition binding, human GABAA α2β2γ1.
[6] abbreviates: Ki h-GABAA α2β2γ1, displacement of [3H]RO7239181, membranes of HEK293F cells expressing human receptors, means of two determinations.

Like-named read-outs stand apart in the source and are kept apart here.

In test [1], `C[C@@H]1N=C(c2ncccc2F)c2c(ccc(Cl)c2Cl)-n2nc(C(=O)N3CC4(CCCCO4)C3)nc21` [Example 101, [(4S)-7,8-dichloro-6-(3-fluoro-2-pyridyl)-4-methyl-4H-[1,2,4]triazolo[1,5-a][1,4]benzodiazepin-2-yl]-(5-oxa-2-azaspiro[3.5]nonan-2-yl)methanone] showed a Ki of 14.4 nM. This molecule registered a Ki in test [2] (setting [5]) of 38 nM. Moreover, the Ki in test [2] (setting [6]) turned out to be 38 nM. For the same molecule, in test [3], affinity was put at a Ki of 8680 nM, the “γ2/γ1 Selectivity Ratio” value is 228.3 and the LogSel is 2.36. Also, in test [4], the “Efficacy (GABA)%” value stood at 97% and the “Fold increase h-GABA-A α2β2γ1 oocyte @ 30-fold Ki” value is reported as 1.97.

On to `C[C@@H]1N=C(c2ncccc2F)c2c(ccc(Cl)c2Cl)-n2nc(C(=O)N3CC(OC(F)F)C3)nc21` [Example 90, [(4S)-7,8-dichloro-6-(3-fluoro-2-pyridyl)-4-methyl-4H-[1,2,4]triazolo[1,5-a][1,4]benzodiazepin-2-yl]-[3-(difluoromethoxy)azetidin-1-yl]methanone], for which the Ki in test [1] was 6.09 nM. The molecule further showed a Ki in test [2] (setting [5]) of 21.8 nM. This molecule also came in with a Ki in test [2] (setting [6]) of 21.8 nM. Further, in test [3], the Ki turned out to be 4740 nM, the “γ2/γ1 Selectivity Ratio” value came out at 217.2 and the LogSel was 2.34. In test [4], the “Efficacy (GABA)%” value was 104% and the “Fold increase h-GABA-A α2β2γ1 oocyte @ 30-fold Ki” value is recorded as 2.04.

The molecule `C[C@@H]1N=C(c2c(F)cccc2F)c2c(ccc(Cl)c2Cl)-n2cc(C#N)nc21` [Example 74, (4S)-7,8-dichloro-6-(2,6-difluorophenyl)-4-methyl-4H-imidazo[1,2-a][1,4]benzodiazepine-2-carbonitrile] displayed a Ki in test [1] of 0.7 nM. The molecule further came in with a Ki in test [2] (setting [5]) of 9.6 nM. Moreover, affinity in test [2] (setting [6]) was put at a Ki of 9.6 nM. Also, in test [3], the Ki amounted to 593 nM, the “γ2/γ1 Selectivity Ratio” value is recorded as 61.8 and the LogSel was 1.79. In addition, in test [4], the “Efficacy (GABA)%” value turned out to be 75% and the “Fold increase h-GABA-A α2β2γ1 oocyte @ 30-fold Ki” value amounted to 1.75.

As for `C[C@@H]1N=C(c2ncccc2F)c2c(ccc(Cl)c2Cl)-n2nc(C(=O)NC3CC3)nc21` [Example 88, (4S)-7,8-dichloro-N-cyclopropyl-6-(3-fluoro-2-pyridyl)-4-methyl-4H-[1,2,4]triazolo[1,5-a][1,4]benzodiazepine-2-carboxamide], the affinity in test [1] corresponds to a Ki of 10.1 nM. The molecule further gave a Ki in test [2] (setting [5]) of 90.6 nM. In addition, the Ki in test [2] (setting [6]) was determined as 90.6 nM. Also, in test [3], the Ki is 2820 nM, the “γ2/γ1 Selectivity Ratio” value amounted to 31.2 and the LogSel is 1.49. Also, in test [4], the “Efficacy (GABA)%” value is 162% and the “Fold increase h-GABA-A α2β2γ1 oocyte @ 30-fold Ki” value is 2.62.

As to `Cc1nc2n(n1)-c1ccc(Cl)c(Cl)c1C(c1c(F)cccc1F)=NC2` [Example 32, 7,8-dichloro-6-(2,6-difluorophenyl)-2-methyl-4H-[1,2,4]triazolo[1,5-a][1,4]benzodiazepine], the affinity in test [1], expressed as Ki, was 0.6 nM. The molecule further showed a Ki in test [2] (setting [5]) of 2.4 nM. Also, the affinity in test [2] (setting [6]) corresponds to a Ki of 2.44 nM. Besides, in test [3], the affinity, expressed as Ki, was 163 nM; the “γ2/γ1 Selectivity Ratio” value worked out at 67.1; the LogSel amounted to 1.83. For the same molecule, in test [4], the “Efficacy (GABA)%” value was 26% and the “Fold increase h-GABA-A α2β2γ1 oocyte @ 30-fold Ki” value turned out to be 1.26.

Molecule `C[C@@H]1N=C(c2ncccc2F)c2c(ccc(Br)c2Cl)-n2nc(C(=O)N3CCC3)nc21` [Example 48, azetidin-1-yl-[(4S)-8-bromo-7-chloro-6-(3-fluoro-2-pyridyl)-4-methyl-4H-[1,2,4]triazolo[1,5-a][1,4]benzodiazepin-2-yl]methanone] gave a Ki in test [1] of 3.22 nM. The molecule also showed a Ki in test [2] (setting [5]) of 18.6 nM. Besides, in test [2] (setting [6]), the affinity corresponds to a Ki of 18.6 nM. In test [3], the affinity, expressed as Ki, was 1310 nM; the “γ2/γ1 Selectivity Ratio” value came to 70.2; the LogSel is reported as 1.85. Further, in test [4], the “Efficacy (GABA)%” value was determined as 94% and the “Fold increase h-GABA-A α2β2γ1 oocyte @ 30-fold Ki” value turned out to be 1.94.

Regarding `C[C@@H]1N=C(c2c(F)cccc2F)c2c(ccc(C(F)(F)F)c2Cl)-n2cc(CO)nc21` [Example 149, [(4S)-7-chloro-6-(2,6-difluorophenyl)-4-methyl-8-(trifluoromethyl)-4H-imidazo[1,2-a][1,4]benzodiazepin-2-yl]methanol], affinity in test [1] was put at a Ki of 1.59 nM. Further, affinity in test [2] (setting [5]) was put at a Ki of 8.3 nM. In addition, the Ki in test [2] (setting [6]) amounted to 8.3 nM. Further, in test [3], the Ki worked out at 1110 nM, the “γ2/γ1 Selectivity Ratio” value amounted to 134.1 and the LogSel turned out to be 2.13. In test [4], the “Efficacy (GABA)%” value is listed as 71% and the “Fold increase h-GABA-A α2β2γ1 oocyte @ 30-fold Ki” value is 1.71.

Regarding `C[C@@H]1N=C(c2ncccc2F)c2c(ccc(C(F)(F)F)c2Cl)-n2nc(C(=O)N3CCS(=O)(=O)CC3)nc21` [Example 124, [(4S)-7-chloro-6-(3-fluoro-2-pyridyl)-4-methyl-8-(trifluoromethyl)-4H-[1,2,4]triazolo[1,5-a][1,4]benzodiazepin-2-yl]-(1,1-dioxo-1,4-thiazinan-4-yl)methanone], the Ki stood at 6.32 nM in test [1], 26.2 nM in test [2] (setting [5]), 26.2 nM in test [2] (setting [6]) and 14400 nM in test [3]. Moreover, in test [3], the “γ2/γ1 Selectivity Ratio” value was 547.2. Besides, the LogSel in test [3] is 2.74. The “Efficacy (GABA)%” value in test [4] is 145%. Also, the “Fold increase h-GABA-A α2β2γ1 oocyte @ 30-fold Ki” value in test [4] was determined as 2.45.

`Cc1nc2n(n1)-c1ccc(C(F)(F)F)c(Cl)c1C(c1c(F)cccc1F)=N[C@H]2C` [Example 29, (4S)-7-chloro-6-(2,6-difluorophenyl)-2,4-dimethyl-8-(trifluoromethyl)-4H-[1,2,4]triazolo[1,5-a][1,4]benzodiazepine] showed a Ki in test [1] of 0.69 nM. Besides, the Ki in test [2] (setting [5]) was found to be 10 nM. In test [2] (setting [6]), this molecule yielded a Ki of 10 nM. Besides, in test [3], the Ki amounted to 1090 nM, the “γ2/γ1 Selectivity Ratio” value is listed as 109.1 and the LogSel worked out at 2.04. Moreover, in test [4], the “Efficacy (GABA)%” value came out at 80% and the “Fold increase h-GABA-A α2β2γ1 oocyte @ 30-fold Ki” value was 1.80.

`C[C@@H]1N=C(c2c(F)cccc2F)c2c(ccc(C(F)(F)F)c2Cl)-n2nc(C(=O)NCC#N)nc21` [Example 110, (4S)-7-chlor-N-(cyanomethyl)-6-(2,6-difluorophenyl)-4-methyl-8-(trifluoromethyl)-4H-[1,2,4]triazolo[1,5-a][1,4]benzodiazepine-2-carboxamide] registered a Ki in test [1] of 2.64 nM. Further, the Ki in test [2] (setting [5]) turned out to be 12.1 nM. This molecule yielded a Ki in test [2] (setting [6]) of 12.1 nM. Also, in test [3], affinity was put at a Ki of 2480 nM, the “γ2/γ1 Selectivity Ratio” value is 205.1 and the LogSel is 2.31. In addition, in test [4], the “Efficacy (GABA)%” value is 119% and the “Fold increase h-GABA-A α2β2γ1 oocyte @ 30-fold Ki” value was 2.19.

`C[C@@H]1N=C(c2c(F)cccc2F)c2c(ccc(Cl)c2Cl)-n2nc(C(=O)N3CC(CF)C3)nc21` [Example 72, [3-(fluoromethyl)azetidin-1-yl]-[(4S)-7,8-dichloro-6-(2,6-difluorophenyl)-4-methyl-4H-[1,2,4]triazolo[1,5-a][1,4]benzodiazepin-2-yl]methanone] gave a Ki in test [1] of 1.1 nM. In addition, affinity in test [2] (setting [5]) was put at a Ki of 7.2 nM. In test [2] (setting [6]), this molecule registered a Ki of 7.2 nM. Also, in test [3], the Ki amounted to 727 nM, the “γ2/γ1 Selectivity Ratio” value is 100.6 and the LogSel came to 2.00. In addition, in test [4], the “Efficacy (GABA)%” value is 44% and the “Fold increase h-GABA-A α2β2γ1 oocyte @ 30-fold Ki” value was found to be 1.44.

As to `[2H]C([2H])([2H])N(C(=O)c1nc2n(n1)-c1ccc(Cl)c(Cl)c1C(c1c(F)cccc1F)=N[C@H]2C)C([2H])([2H])[2H]` [Example 19, (4S)-7,8-dichlor-6-(2,6-difluorophenyl)-4-methyl-N,N-bis(trideuteriomethyl)-4H-[1,2,4]triazolo[1,5-a][1,4]benzodiazepine-2-carboxamide], the Ki in test [1] came to 1.98 nM; in test [2] (Ki h-GABAA α2β2γ1, Table 3, reference compounds), 32.5 nM; in test [2] (setting [5]) it was 32.5 nM; in test [2] (setting [6]) it was 32.5 nM; in test [3] it was 2650 nM; in test [3] (read-out: Ki h-GABAA α1β3γ2, Table 3, reference compounds), 2650 nM. Moreover, the “γ2/γ1 Selectivity Ratio” value in test [3] and in test [3] (Table 3) was 81.5 throughout. In addition, the LogSel in test [3] and in test [3] (Table 3) was 1.91 each time. The “Efficacy (GABA)%” value in test [4] was determined as 97%. For the same molecule, in test [4], the “Fold increase h-GABA-A α2β2γ1 oocyte @ 30-fold Ki” value turned out to be 1.97.

For `C[C@@H]1N=C(c2ncccc2F)c2c(ccc(C(F)(F)F)c2Cl)-n2nc(C(=O)N3CC4(CCOC4)C3)nc21` [Example 120, 6-oxa-2-azaspiro[3.4]octan-2-yl-[(4S)-7-chloro-6-(3-fluoro-2-pyridyl)-4-methyl-8-(trifluoromethyl)-4H-[1,2,4]triazolo[1,5-a][1,4]benzodiazepin-2-yl]methanone], the Ki amounted to 8.55 nM in test [1], 80.4 nM in test [2] (setting [5]), 80.4 nM in test [2] (setting [6]) and 5330 nM in test [3]. Further, in test [3], the “γ2/γ1 Selectivity Ratio” value is given as 66.3. Moreover, in test [3], the LogSel is listed as 1.82. For the same molecule, the “Efficacy (GABA)%” value in test [4] was determined as 178%. In test [4], the “Fold increase h-GABA-A α2β2γ1 oocyte @ 30-fold Ki” value worked out at 2.78.

The Ki is a dissociation constant, usually derived from enzyme kinetics or from competition with a known ligand.

Source of the values: patent US12365687B2 (Hoffmann-La Roche Inc., priority 2021, dated 2025).
